Assay: recombinant UMI read abundance after kanamycin selection (control-corrected) (log10(CPM+1)); higher = more efficient recombination; extreme values may be limits of the assay; sequences stand for … in AGTGCAGAGAAAATCGGCCAGTTTTCTCTGCCTGCAGTCCGCATGCCGTGGGACCCCTTGGGTTCTAACCTGTTGCCTAGATTTATGCAGCGGACTGCCTTTCTCCCAAAGTGATAAACCGG…AGGTTGGTTTCACT; site = the 11-nt donor
In short: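 Values are reported as log10(CPM+1), obtained by converting sequencing counts to CPM, averaging replicates and scaling by control-derived factors. The counts came from recombinant UMIs amplified by PCR across the donor–target junction. These UMIs came from a pooled Escherichia coli screen of donor and donor-binding-loop pairs for the IS621 bridge recombinase, plated with IPTG (0.07 mM) plus kanamycin or left unselected, in two replicates each.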
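Also: IS621 bridge recombinase in Escherichia coli cells against a fixed T5 target plasmid.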

Sequence | recombinant UMI read abundance (log10)
GCTTGGCCATGGACCGGTTTTCCCGGTAATCCGTATTTGAT (site GCTTGTCCTAT) | 0.00708
GCTTGTACATGGACCGGTTTTCCCGGTAATCCGTATTTGGT (site GCTTGTACTAC) | 1.08
GCTTTAACATGGACCGGTTTTCCCGGTAATCCGTATTTGCT (site GCTTTAACTAG) | 0.0522
GCTTTCCCATGGACCGGTTTTCCCGGTAATCCGTATTTGAT (site GCTTACCCTAT) | 0
GCTTTCCCATGGACCGGTTTTCCCGGTAATCCGTATTTGAT (site GCTTCCCCTAT) | 0.00917
GCTTTCCCATGGACCGGTTTTCCCGGTAATCCGTATTTGAT (site GCTTGCCCTAT) | 0.00235
GCTTTCCCATGGACCGGTTTTCCCGGTAATCCGTATTTGAT (site GCTTTCCCTAT) | 0.343
GGAAACTCATGGACCGGTTTTCCCGGTAATCCGTATTTGTC (site GGAAACTCTGA) | 2.42
GGAAAGACATGGACCGGTTTTCCCGGTAATCCGTATTTGCC (site GGAAAGACTGG) | 1.64
GGAAAGACATGGACCGGTTTTCCCGGTAATCCGTATTTGCC (site GGACAGACTGG) | 0
GGAAAGACATGGACCGGTTTTCCCGGTAATCCGTATTTGCC (site GGAGAGACTGG) | 0.347
GGAAAGACATGGACCGGTTTTCCCGGTAATCCGTATTTGCC (site GGATAGACTGG) | 0
GGAAAGGCATGGACCGGTTTTCCCGGTAATCCGTATTTGCT (site AGAAAGGCTAG) | 1.75
GGAAAGGCATGGACCGGTTTTCCCGGTAATCCGTATTTGCT (site CGAAAGGCTAG) | 1.06
GGAAAGGCATGGACCGGTTTTCCCGGTAATCCGTATTTGCT (site GGAAAGGCTAG) | 2.39
GGAAAGGCATGGACCGGTTTTCCCGGTAATCCGTATTTGCT (site TGAAAGGCTAG) | 1.25
GGAACAGCATGGACCGGTTTTCCCGGTAATCCGTATTTGCC (site GGAACAGCTGG) | 3.09
GGAACATCATGGACCGGTTTTCCCGGTAATCCGTATTTGCT (site CGATCATCTAG) | 0
GGAACATCATGGACCGGTTTTCCCGGTAATCCGTATTTGCT (site GGAACATCTAG) | 2.03
GGAACTTCATGGACCGGTTTTCCCGGTAATCCGTATTTGGC (site GGAACTTCTGC) | 1.94
GGAAGATCATGGACCGGTTTTCCCGGTAATCCGTATTTGAA (site GGAAGATCTTT) | 2.06
GGACACCCATGGACCGGTTTTCCCGGTAATCCGTATTTGTT (site GGACACCCTAA) | 0.444
GGACACCCATGGACCGGTTTTCCCGGTAATCCGTATTTGTT (site GGCCACCCTAA) | 0.011

Sequence | recombinant UMI read abundance (log10)
GGACACCCATGGACCGGTTTTCCCGGTAATCCGTATTTGTT (site GGGCACCCTAA) | 0.0209
GGACACCCATGGACCGGTTTTCCCGGTAATCCGTATTTGTT (site GGTCACCCTAA) | 0.00995
GGACACGCATGGACCGGTTTTCCCGGTAATCCGTATTTGAC (site GGACACGCTGT) | 2.38
GGACGCGCATGGACCGGTTTTCCCGGTAATCCGTATTTGGA (site GGACGCGCTTC) | 0.00923
GGACGGCCATGGACCGGTTTTCCCGGTAATCCGTATTTGCG (site GGACGGCCTCG) | 0.137
GGACTAGCATGGACCGGTTTTCCCGGTAATCCGTATTTGTA (site GGACTAGCTTA) | 2.56
GGAGACACATGGACCGGTTTTCCCGGTAATCCGTATTTGTC (site GGAGACACTGA) | 2.59
GGAGCATCATGGACCGGTTTTCCCGGTAATCCGTATTTGAA (site GGAGCATCTTT) | 1.8
GGAGGCCCATGGACCGGTTTTCCCGGTAATCCGTATTTGAT (site GGAGGCCCTAT) | 0.727
GGAGGGCCATGGACCGGTTTTCCCGGTAATCCGTATTTGGC (site GGAGGGCCTGC) | 0
GGAGGTACATGGACCGGTTTTCCCGGTAATCCGTATTTGCG (site GGAGGTACTCG) | 1.31
GGAGTCGCATGGACCGGTTTTCCCGGTAATCCGTATTTGGT (site GGAGTAGCTAC) | 0.278
GGAGTCGCATGGACCGGTTTTCCCGGTAATCCGTATTTGGT (site GGAGTCGCTAC) | 0.854
GGAGTCGCATGGACCGGTTTTCCCGGTAATCCGTATTTGGT (site GGAGTGGCTAC) | 0.0282
GGAGTCGCATGGACCGGTTTTCCCGGTAATCCGTATTTGGT (site GGAGTTGCTAC) | 0.00431
GGAGTGACATGGACCGGTTTTCCCGGTAATCCGTATTTGGT (site GGAGTGACTAC) | 0.736
GGAGTGACATGGACCGGTTTTCCCGGTAATCCGTATTTGGT (site GGAGTGCCTAC) | 0.00536
GGAGTGACATGGACCGGTTTTCCCGGTAATCCGTATTTGGT (site GGAGTGGCTAC) | 0.259
GGAGTGACATGGACCGGTTTTCCCGGTAATCCGTATTTGGT (site GGAGTGTCTAC) | 0.92
GGAGTGGCATGGACCGGTTTTCCCGGTAATCCGTATTTGCT (site GGAGTGGCTAA) | 0.463
GGAGTGGCATGGACCGGTTTTCCCGGTAATCCGTATTTGCT (site GGAGTGGCTAC) | 0.163
GGAGTGGCATGGACCGGTTTTCCCGGTAATCCGTATTTGCT (site GGAGTGGCTAG) | 2.36
GGAGTGGCATGGACCGGTTTTCCCGGTAATCCGTATTTGCT (site GGAGTGGCTAT) | 0.809

Sequence | recombinant UMI read abundance (log10)
GGAGTGGCATGGACCGGTTTTCCCGGTAATCCGTATTTGGC (site GGAGTGGCTAC) | 0.502
GGAGTGGCATGGACCGGTTTTCCCGGTAATCCGTATTTGGC (site GGAGTGGCTCC) | 0.101
GGAGTGGCATGGACCGGTTTTCCCGGTAATCCGTATTTGGC (site GGAGTGGCTGC) | 2
GGAGTGGCATGGACCGGTTTTCCCGGTAATCCGTATTTGGC (site GGAGTGGCTTC) | 0.328
GGAGTGGCATGGACCGGTTTTCCCGGTAATCCGTATTTGGT (site AGAGTGGCTAC) | 0.902
GGAGTGGCATGGACCGGTTTTCCCGGTAATCCGTATTTGGT (site CGAGTGGCTAC) | 0.437
GGAGTGGCATGGACCGGTTTTCCCGGTAATCCGTATTTGGT (site GAAGTGGCTAC) | 0.126
GGAGTGGCATGGACCGGTTTTCCCGGTAATCCGTATTTGGT (site GCAGTGGCTAC) | 0.497
GGAGTGGCATGGACCGGTTTTCCCGGTAATCCGTATTTGGT (site GGAATGGCTAC) | 0.749
GGAGTGGCATGGACCGGTTTTCCCGGTAATCCGTATTTGGT (site GGACTGGCTAC) | 0.0487
GGAGTGGCATGGACCGGTTTTCCCGGTAATCCGTATTTGGT (site GGAGAGGCTAC) | 0.524
GGAGTGGCATGGACCGGTTTTCCCGGTAATCCGTATTTGGT (site GGAGCGGCTAC) | 0.00445
GGAGTGGCATGGACCGGTTTTCCCGGTAATCCGTATTTGGT (site GGAGGGGCTAC) | 0.461
GGAGTGGCATGGACCGGTTTTCCCGGTAATCCGTATTTGGT (site GGAGTAGCTAC) | 0.606
GGAGTGGCATGGACCGGTTTTCCCGGTAATCCGTATTTGGT (site GGAGTCGCTAC) | 0.014
GGAGTGGCATGGACCGGTTTTCCCGGTAATCCGTATTTGGT (site GGAGTGACTAC) | 0.976
GGAGTGGCATGGACCGGTTTTCCCGGTAATCCGTATTTGGT (site GGAGTGCCTAC) | 0.377
GGAGTGGCATGGACCGGTTTTCCCGGTAATCCGTATTTGGT (site GGAGTGGCTAA) | 0.0703
GGAGTGGCATGGACCGGTTTTCCCGGTAATCCGTATTTGGT (site GGAGTGGCTAC) | 0.575
GGAGTGGCATGGACCGGTTTTCCCGGTAATCCGTATTTGGT (site GGAGTGGCTAG) | 1.26
GGAGTGGCATGGACCGGTTTTCCCGGTAATCCGTATTTGGT (site GGAGTGGCTAT) | 0.592
GGAGTGGCATGGACCGGTTTTCCCGGTAATCCGTATTTGGT (site GGAGTGGCTCC) | 0.0114
